Test results from patent US9872922B2, “Anti-EFNA4 antibody-drug conjugates” (PFIZER, INC., priority 2013, dated 2018).

What was measured:
[1] = test system: Ovarian-39 (OV39) ovarian cancer PDX; assay: In vivo efficacy, OV39 ovarian cancer PDX; set-up: species or system NOD/SCID mice (human tumor PDX); conditions: for mean tumor volume: 1.5 mg/kg
[2] = test system: Ovarian-63 (OV63) ovarian cancer PDX; assay: In vivo efficacy, OV63 ovarian cancer PDX; set-up: species or system NOD/SCID mice (human tumor PDX); mean tumor volume: unit not given beside the values; conditions: for mean tumor volume: 5.0 mg/kg
[3] = test system: Ovarian-44 (OV44) ovarian cancer PDX; assay: In vivo efficacy, OV44 ovarian cancer PDX; set-up: species or system NOD/SCID mice (human tumor PDX); conditions: 5 mpk, once a week for 2 cycles
[4] = test system: Breast-13 (BR13) TNBC PDX; assay: In vivo efficacy, BR13 TNBC PDX; set-up: species or system NOD/SCID mice (human tumor PDX); conditions: for tumor volume ± SEM: 1.5 mg/kg
BR64 = assay: In vivo efficacy, BR64 TNBC Claudin-low tumor model; set-up: species or system mice; conditions: 1.5 mpk
From the text: (§1) In breast and ovarian models, tumor regression was defined as a reduction in mean tumor volume after dosing. TGI=Tumor Growth Inhibition. % TGI=[1−(Mean Tumor Volume of Treated)/(Mean Tumor Volume of Vehicle)]. […] ADC dose levels are listed in mg/kg according to antibody content.

[5] = test system: Breast-31 (BR31) TNBC PDX; assay: In vivo efficacy, BR31 TNBC PDX; set-up: species or system NOD/SCID mice (human tumor PDX); conditions: for mean tumor volume: 1.5 mg/kg
[6] = test system: Breast-56 (BR56) TNBC PDX; assay: In vivo efficacy, BR56 TNBC PDX; set-up: species or system NOD/SCID mice (human tumor PDX); conditions: for tumor volume ± SEM: 1.5 mg/kg
BR17 = assay: In vivo efficacy, BR17 HER2+ breast tumor model; set-up: species or system mice; conditions: 1.5 mpk
From the text: as §1

[7] = test system: Breast-5 (BR5) triple-negative breast cancer (TNBC) PDX; assay: In vivo efficacy, BR5 TNBC PDX; set-up: species or system NOD/SCID mice (human tumor PDX); conditions: for tumor volume ± SEM: 1.5 mg/kg
BR25 = assay: In vivo efficacy, BR25 TNBC Claudin-low tumor model; set-up: species or system mice; conditions: 1.5 mpk
From the text: as §1

[8] = test system: Breast-22 (BR22) TNBC PDX; assay: In vivo efficacy, BR22 TNBC PDX; conditions: for tumor volume ± SEM: 1.5 mg/kg
From the text: as §1

Compound: N.N.[Cl][Pt][Cl] [Cisplatin, cisplatin, reference compound]
- Regression (TTP, Days) ([1]; 5 mpk, once a week for 2 cycles, OV39): Regression (28) Days
- mean tumor volume ([2]; Day 0): 153 ± 22
- mean tumor volume ([2]; Day 5): 146 ± 27
- mean tumor volume ([2]; Day 18): 198 ± 29
- mean tumor volume ([2]; Day 25): 205 ± 36
- mean tumor volume ([2]; Day 32): 238 ± 49
- mean tumor volume ([2]; Day 39): 221 ± 40
- mean tumor volume ([2]; Day 47): 243 ± 42
- mean tumor volume ([2]; Day 53): 265 ± 63
- mean tumor volume ([2]; Day 60): 296 ± 80
- mean tumor volume ([2]; Day 67): 265 ± 82
- % TGI ([2]; 5 mpk, once a week for 2 cycles, OV63 PDX): 35% TGI
- Regression (TTP, Days) [3]: Regression (60) Days

Compound: COc1cccc2c1C(=O)c1c(O)c3c(c(O)c1C2=O)C[C@@](O)(C(=O)CO)C[C@@H]3O[C@H]1C[C@H](N)[C@H](O)[C@H](C)O1 [Doxorubicin, doxorubicin, reference compound]
- tumor volume ± SEM ([4]; Day 0): 167 ± 13 mm^3
- tumor volume ± SEM ([4]; Day 7): 178 ± 20 mm^3
- tumor volume ± SEM ([4]; Day 22): 322 ± 38 mm^3
- tumor volume ± SEM ([4]; Day 14): 227 ± 25 mm^3
- tumor volume ± SEM ([4]; Day 28): 326 ± 34 mm^3
- % TGI ([4]; 1.5 mpk, BR13): 16% TGI
- impact on tumor growth ([4]; in vivo): neither the control ADC nor doxorubicin SOC impacted tumor growth
- mean tumor volume ([1]; Day 0): 186 ± 33
- mean tumor volume ([1]; Day 7): 282 ± 50
- mean tumor volume ([1]; Day 14): 171 ± 32
- mean tumor volume ([1]; Day 17): 122 ± 24
- mean tumor volume ([1]; Day 24): 83 ± 11
- mean tumor volume ([1]; Day 28): 118 ± 17
- mean tumor volume ([1]; Day 35): 361 ± 40
- mean tumor volume ([1]; Day 42): 712 ± 97
- mean tumor volume ([1]; Day 49): 966 ± 85
- Regression (TTP, Days) or % TGI (BR64): No activity
- mean tumor volume ([5]; Day 0): 160 ± 11
- mean tumor volume ([5]; Day 7): 304 ± 20
- mean tumor volume ([5]; Day 14): 458 ± 24
- mean tumor volume ([5]; Day 21): 592 ± 56
- mean tumor volume ([5]; Day 28): 759 ± 111
- % TGI ([5]; 1.5 mpk, BR31 PDX): 30% TGI
- impact on tumor growth ([5]; in vivo): neither the control ADC nor doxorubicin SOC impacted tumor growth
- tumor volume ± SEM ([6]; Day 0): 141 ± 13 mm^3
- tumor volume ± SEM ([6]; Day 4): 182 ± 11 mm^3
- tumor volume ± SEM ([6]; Day 11): 267 ± 31 mm^3
- tumor volume ± SEM ([6]; Day 18): 318 ± 32 mm^3
- tumor volume ± SEM ([6]; Day 25): 374 ± 50 mm^3
- % TGI ([6]; 1.5 mpk, BR56 PDX): 49% TGI
- impact on tumor growth ([6]; in vivo): neither the control ADC nor doxorubicin SOC impacted tumor growth
- % TGI (BR17): 66% TGI
- tumor volume ± SEM ([7]; Day 0): 166 ± 18 mm^3
- tumor volume ± SEM ([7]; Day 7): 494 ± 70 mm^3
- tumor volume ± SEM ([7]; Day 11): 752 ± 92 mm^3
- tumor volume ± SEM ([7]; Day 18): 966 ± 32 mm^3
- % TGI ([7]; 1.5 mpk, BR5 PDX): 44% TGI
- impact on tumor growth ([7]; in vivo): neither the control ADC nor doxorubicin standard-of-care (SOC) impacted tumor growth
- Regression (TTP, Days) or % TGI (BR25): No activity
- tumor volume ± SEM ([8]; Day 0): 244 ± 17 mm^3
- tumor volume ± SEM ([8]; Day 7): 416 ± 61 mm^3
- tumor volume ± SEM ([8]; Day 14): 553 ± 39 mm^3
- tumor volume ± SEM ([8]; Day 21): 729 ± 91 mm^3
- % TGI ([8]; 1.5 mpk, BR22 PDX): 27% TGI
- impact on tumor growth ([8]; in vivo): Neither the control ADC nor doxorubicin SOC impacted tumor growth
